{
  "source": "patent US10961163B2",
  "about": "“Compositions and methods useful for enhancing the microbial conversion of nitrate into ammonium” (The Regents of the University of California, priority 2016, dated 2021)",
  "data": [
    {"system": "microbial enrichment cultures", "test": "Inhibitory potency (IC50) of inorganic compounds against growth and ammonium production, microbial enrichment with yeast extract", "format": "cell-based", "settings": "not given", "values": [
      {"compound": "CC(=O)c1ccc(O)cc1", "note": "[4-Hydroxyacetophenone]", "NH4^+ IC50/growth IC50 ratio": 1.3700},
      {"compound": "Cl.N", "note": "[Ammonium chloride]", "NH4^+ IC50/growth IC50 ratio": 1.0157},
      {"compound": "N.N.O.O=S(O)O", "note": "[Ammonium sulfite monohydrate]", "NH4^+ IC50/growth IC50 ratio": 2.0739},
      {"compound": "O.O.O.O.O.[Cd+2].[Cd+2].[Cl-].[Cl-].[Cl-].[Cl-]", "note": "[Cadmium chloride hemipentahydrate]", "NH4^+ IC50/growth IC50 ratio": 0.2809},
      {"compound": "[Ce+3].[Cl-].[Cl-].[Cl-]", "note": "[Cerium(III) chloride]", "NH4^+ IC50/growth IC50 ratio": 0.0189},
      {"compound": "[Cl-].[Cs+]", "note": "[Cesium chloride]", "NH4^+ IC50/growth IC50 ratio": 30.1708},
      {"compound": "O.O.O.O.O.O.[Cl][Cr]([Cl])[Cl]", "note": "[Chromium(III) Chloride Hexahydrate]", "NH4^+ IC50/growth IC50 ratio": 0.0003},
      {"compound": "O.O.O.O.O.O.[Cl-].[Cl-].[Co+2]", "note": "[Cobalt chloride hexahydrate]", "NH4^+ IC50/growth IC50 ratio": 22.1846},
      {"compound": "[Cl-].[Cl-].[Cl-].[Eu+3]", "note": "[Europium(III) chloride]", "NH4^+ IC50/growth IC50 ratio": 0.1036},
      {"compound": "[Cl-].[Cl-].[Cl-].[Ga+3]", "note": "[Gallium(III)chloride]", "NH4^+ IC50/growth IC50 ratio": 1.0037},
      {"compound": "Cl.NO", "note": "[Hydroxylamine hydrochloride]", "NH4^+ IC50/growth IC50 ratio": 0.3854},
      {"compound": "[Cl][Pb][Cl]", "note": "[Lead(II)chloride]", "NH4^+ IC50/growth IC50 ratio": 0.0174},
      {"compound": "[Cl-].[Li+]", "note": "[Lithium chloride]", "NH4^+ IC50/growth IC50 ratio": 3.4054},
      {"compound": "[Cl-].[K+]", "note": "[Potassium Chloride]", "NH4^+ IC50/growth IC50 ratio": 0.4776},
      {"compound": "O.O=[Te]([O-])[O-].[K+].[K+]", "note": "[Potassium tellurite hydrate]", "NH4^+ IC50/growth IC50 ratio": 0.1044},
      {"compound": "O=S(=O)([O-])CCBr.[Na+]", "note": "[Sodium 2-bromoethanesulfonate]", "NH4^+ IC50/growth IC50 ratio": 5.3024},
      {"compound": "[Na+].[O-][Cl+2]([O-])[O-]", "note": "[Sodium Chlorate]", "NH4^+ IC50/growth IC50 ratio": 1.9090},
      {"compound": "[Cl-].[Na+]", "note": "[Sodium Chloride]", "NH4^+ IC50/growth IC50 ratio": 21.9487},
      {"compound": "O.O.O.O.O.O.O.O=[As]([O-])([O-])O.[Na+].[Na+]", "note": "[Sodium arsenate dibasic heptahydrate]", "NH4^+ IC50/growth IC50 ratio": 3.2618},
      {"compound": "O=C([O-])O.[Na+]", "note": "[Sodium bicarbonate]", "NH4^+ IC50/growth IC50 ratio": 0.3242},
      {"compound": "O=C([O-])[O-].[Na+].[Na+]", "note": "[Sodium carbonate]", "NH4^+ IC50/growth IC50 ratio": 0.5039},
      {"compound": "C[C@H](CCC(=O)[O-])[C@H]1CC[C@H]2[C@@H]3[C@H](O)C[C@@H]4C[C@H](O)CC[C@]4(C)[C@H]3C[C@H](O)[C@]12C.O.[Na+]", "note": "[Sodium cholate hydrate]", "NH4^+ IC50/growth IC50 ratio": 5.9537},
      {"compound": "O=[As][O-].[Na+]", "note": "[Sodium m-arsenite]", "NH4^+ IC50/growth IC50 ratio": 3.9664},
      {"compound": "CS(=O)(=O)[O-].[Na+]", "note": "[Sodium methanesulfonate]", "NH4^+ IC50/growth IC50 ratio": 0.4289},
      {"compound": "[Na+].[Na+].[O]=[Mo](=[O])([O-])[O-]", "note": "[Sodium molybdate]", "NH4^+ IC50/growth IC50 ratio": 6.7259},
      {"compound": "O=[N+]([O-])[O-].[Na+]", "note": "[Sodium nitrate]", "NH4^+ IC50/growth IC50 ratio": 3.4080},
      {"compound": "O=NO", "note": "[Sodium nitrite]", "NH4^+ IC50/growth IC50 ratio": 0.3023},
      {"compound": "[O-][Cl+3]([O-])([O-])O", "note": "[Sodium perchlorate monohydrate]", "NH4^+ IC50/growth IC50 ratio": 5.2779},
      {"compound": "[Na+].[O-][I+3]([O-])([O-])[O-]", "note": "[Sodium periodate]", "NH4^+ IC50/growth IC50 ratio": 7.8824},
      {"compound": "O.O=P([O-])(O)O.[Na+]", "note": "[Sodium phosphate monobasic monohydrate]", "NH4^+ IC50/growth IC50 ratio": 0.3418},
      {"compound": "O=[PH](O)O", "note": "[Sodium phosphite dibasic pentahydrate]", "NH4^+ IC50/growth IC50 ratio": 1.3336},
      {"compound": "O=[Se](=O)(O)O", "note": "[Sodium selenate]", "NH4^+ IC50/growth IC50 ratio": 10.0581},
      {"compound": "O.O.O.O.O.O=[Se]([O-])[O-].[Na+].[Na+]", "note": "[Sodium selenite pentahydrate]", "NH4^+ IC50/growth IC50 ratio": 0.2998},
      {"compound": "O=S(=O)([O-])[O-].[Na+].[Na+]", "note": "[Sodium sulfate]", "NH4^+ IC50/growth IC50 ratio": 1.0000},
      {"compound": "O.O.O.O.O.O=S([O-])([O-])=S.[Na+].[Na+]", "note": "[Sodium thiosulfate pentahydrate]", "NH4^+ IC50/growth IC50 ratio": 0.5741},
      {"compound": "[Cl-].[Cl-].[Sr+2]", "note": "[Strontium chloride]", "NH4^+ IC50/growth IC50 ratio": 3.3568},
      {"compound": "CC(=O)[O-].[Tl+]", "note": "[Thallium(I) acetate]", "NH4^+ IC50/growth IC50 ratio": 0.3751},
      {"compound": "[Cl-].[Cl-].[Zn+2]", "note": "[Zinc chloride]", "NH4^+ IC50/growth IC50 ratio": 0.1037},
      {"compound": "O=[Te](=O)([O-])[O-].[K+].[K+]", "note": "[potassium tellurate]", "NH4^+ IC50/growth IC50 ratio": 1.7673},
      {"compound": "[Cl-].[Rb+]", "note": "[rubidium chloride]", "NH4^+ IC50/growth IC50 ratio": 1.4483},
      {"compound": "O=S(=O)([O-])[O-].[Ag+].[Ag+]", "note": "[silver sulfate]", "NH4^+ IC50/growth IC50 ratio": 1.9192},
      {"compound": "[Br-].[Na+]", "note": "[sodium bromide]", "NH4^+ IC50/growth IC50 ratio": 0.5766},
      {"compound": "[F-].[Na+]", "note": "[sodium fluoride]", "NH4^+ IC50/growth IC50 ratio": 1.6628},
      {"compound": "[I-].[Na+]", "note": "[sodium iodide]", "NH4^+ IC50/growth IC50 ratio": 0.2617},
      {"compound": "O=S([O-])[O-].[Na+].[Na+]", "note": "[sodium sulfite]", "NH4^+ IC50/growth IC50 ratio": 2.4699},
      {"compound": "Barium chloride dihydrate", "NH4^+ IC50/growth IC50 ratio": 0.1756},
      {"compound": "Calcium chloride dihydrate", "NH4^+ IC50/growth IC50 ratio": 0.1455},
      {"compound": "Manganese (II) chloride tetrahydrate", "NH4^+ IC50/growth IC50 ratio": 0.0037},
      {"compound": "Nickel (II) chloride hexahydrate", "NH4^+ IC50/growth IC50 ratio": 53.6273},
      {"compound": "Sodium Chlorite", "NH4^+ IC50/growth IC50 ratio": 1.2683},
      {"compound": "Sodium deoxycholate monohydrate", "NH4^+ IC50/growth IC50 ratio": 0.0027},
      {"compound": "Sodium metavanadate", "NH4^+ IC50/growth IC50 ratio": 13.0898},
      {"compound": "Sodium thiophosphate tribasic hydrate", "NH4^+ IC50/growth IC50 ratio": 0.8963},
      {"compound": "Sodium tungstate dihydrate", "NH4^+ IC50/growth IC50 ratio": 1.8289}
    ]},
    {"system": "microbial enrichment cultures", "test": "Inhibitory potency (IC50) of inorganic compounds against growth and ammonium production, microbial enrichment with yeast extract", "format": "cell-based", "settings": "microbial enrichment with complex carbon source (yeast extract), serial dilutions of inorganic compound; higher ratio favors ammonium production", "values": [
      {"compound": "O=C1c2ccc(S(=O)(=O)O)cc2C(=O)c2cc(S(=O)(=O)O)ccc21", "note": "[AQDS, 9,10-Anthraquinone-2,7-disulphonic acid]", "NH4^+ IC50/growth IC50 ratio": 6.4905},
      {"compound": "O=C(O)CC(NCCNC(CC(=O)O)C(=O)O)C(=O)O", "note": "(stereo not shown) [Ethylenediamine-N,N′-disuccinic acid]", "NH4^+ IC50/growth IC50 ratio": 44.3418},
      {"compound": "[Cl][Fe]([Cl])[Cl]", "note": "[Ferric chloride]", "NH4^+ IC50/growth IC50 ratio": 0.2642},
      {"compound": "O=C(O)c1cc(O)c(O)c(O)c1", "note": "[Gallic Acid]", "NH4^+ IC50/growth IC50 ratio": 4.9374},
      {"compound": "O=C(O)CN(CC(=O)O)CC(=O)O", "note": "[Nitrilotriacetic acid]", "NH4^+ IC50/growth IC50 ratio": 0.4756},
      {"compound": "[Cl][Pd][Cl]", "note": "[Palladium(II) chloride]", "NH4^+ IC50/growth IC50 ratio": 0.4739},
      {"compound": "O=S(=O)([O-])CCS.[Na+]", "note": "[Sodium 2-mercaptoethanesulfonate]", "NH4^+ IC50/growth IC50 ratio": 13.0401},
      {"compound": "OCl", "note": "[Sodium hypochlorite]", "NH4^+ IC50/growth IC50 ratio": 0.0048},
      {"compound": "O=P([O-])(O)OP(=O)([O-])O.[Na+].[Na+]", "note": "[Sodium pyrophosphate dibasic]", "NH4^+ IC50/growth IC50 ratio": 0.6988},
      {"compound": "COc1cc(CO)ccc1O", "note": "[Vanillyl Alcohol]", "NH4^+ IC50/growth IC50 ratio": 2.0632},
      {"compound": "CS(C)(=O)=O", "note": "[dimethyl sulfone]", "NH4^+ IC50/growth IC50 ratio": 2.0187},
      {"compound": "Aluminum chloride hydrate", "NH4^+ IC50/growth IC50 ratio": 0.0961},
      {"compound": "copper (II) chloride dihydrate", "NH4^+ IC50/growth IC50 ratio": 0.1069}
    ]},
    {"system": "microbial enrichment cultures", "test": "Ammonium production normalized by growth (NH4+/OD ratio) of microbial enrichment cultivated on individual carbon sources", "format": "cell-based", "settings": "not given", "values": [
      {"compound": "L-tyrosine disodium salt", "Ammonium/OD ratio": 0.87}
    ]},
    {"system": "microbial enrichment cultures", "test": "Ammonium production normalized by growth (NH4+/OD ratio) of microbial enrichment cultivated on individual carbon sources", "format": "cell-based", "settings": "average of 8 independent cultures amended with varying concentrations of the carbon source; ammonium by colorimetric (Bertholet) assay, growth by OD 600", "values": [
      {"compound": "D-Salicin", "Ammonium/OD ratio": 1.35},
      {"compound": "Gelatin", "Ammonium/OD ratio": 0.85}
    ]}
  ]
}
